“Also recorded” adds a separate entry of the source.
How the values were obtained:
[1] = system: NANOS3-H2BmCherry reporter pEPSCs^Emb; assay: Induction of pPGCLCs from NANOS3-H2BmCherry reporter pEPSCs (EBs, FACS); assay type: cell-based, porcine; settings: inhibition of BMP2/4 signaling in EB culture
Procedure: To analyse the contribution of donor mCherry^+ porcine EPSCs in day 25-27 chimeras, the half fetuses were dissected into small pieces representing several body parts (head, trunk and tail). The dissected tissues and placenta were digested with 1.0 mg/ml collagenase IV (Thermo Fisher Scientific, Cat. No. 17104019) for 1-3 hours at 37° C. on a shaker. A pipette was used to blow the tissue blocks and dissociate them into single cells. The dissociated cells were filtered with a 35 μm nylon mesh (Corning, Cat. No. 352235) to remove tissues clumps. After centrifugation, the cells were fixed using Fixation Medium according to the manufacturers' manual (BD Cytofix, Cat. No. 554655) and the washed cells were stored at 4° C. in PBS supplemented with 0.1% NaN3 (Sigma, Cat. No. 199931) and 5% FBS (Gibco, Cat. No. 10270) before analysed with flow cytometry. All the samples were analysed using BD LSR Fortessa cytometer. 561 nm (610/20 bandpass filter) and 488 nm (525/50 bandpass filter) channels were used to detect mCherry and excluded autofluorescence. PGC EBs were trypsinized with 0.25% trypsin/EDTA Gibco, Cat. No. 25500-054) at 37° C. for 15 mins and stained with PerCP-Cy5.5 conjugated anti-TNAP antibody. 561 nm (610/20 bandpass filter) and 488 nm (710/50 bandpass filter) channels were used to detect NANOS3-H2BmCherry^+/TNAP^+ cells. FACS data were analysed by Flowjo software. […]

pEPSCs^Emb = assay: Requirement of individual culture components for pEPSCs (RT-qPCR, AP+ colony formation); assay type: cell-based, porcine; settings: for number of colonies from single cells / pluripotency gene expression: removing the component from pEPSCM
Procedure: (§1) Porcine and human EPSC cultures were routinely maintained on STO feeders. STO feeder plates were prepared 3-4 days before passaging by thawing and plating the mitomycin C inactivated STO cells on 0.1% gelatinised plates at the density of ˜1.1×10^4 cells/cm^2. Porcine/human EPSC cells were maintained on STO feeder layers and enzymatically passaged every 3-5 days by a brief PBS wash followed by treatment for 3-5 minutes with 0.25% trypsin/EDTA (Gibco, Cat. No. 25500-054). The cells were dissociated and centrifuged (300 g×5 minutes) in M10 medium. M10: knockout DMEM (Gibco, Cat. No. 10829-018), 10% FBS (Gibco, Cat. No. 10270), 1× Glutamine Penicillin-Streptomycin (Thermo Fisher Scientific, Cat. No. 11140050) and 1×NEAA (Thermo Fisher Scientific, Cat. No. 10378-016). After removing supernatant, the porcine/human EPSCs were re-suspended and seeded in pEPSCM/hEPSCM supplemented with 5 μM ROCK inhibitor Y-27632 (Tocris, Cat. No. 1254). 5% FBS (Gibco, Cat. No. 10270) and 10% KnockOut Serum Replacement (KSR) (Gibco, Cat. No. 10828028) were added in pEPSCM and hEPSCM respectively to improve cells survive. 12-24 hours later, medium was switched to pEPSCM/hEPSCM only. Both pEPSCM and hEPSCM are N2B27 based media. N2B27 basal media (500 ml) was prepared by inclusion of the following components: 482.5 ml DMEM/F-12 (Gibco, Cat. No. 21331-020), 2.5 ml N2 supplement (Thermo Fisher Scientific, Cat. No. 17502048), 5 ml B27 supplement (Thermo Fisher Scientific, Cat. No. 17504044), 5 ml 1× Glutamine Penicillin-Streptomycin (Thermo Fisher Scientific, Cat. No. 11140-050), and 5 ml 1×NEAA (Thermo Fisher Scientific, Cat. No. 10378-016), 0.1 mM 2-mercaptoethanol (Sigma, Cat. No. M6250). pEPSCM (500 ml) was generated by adding the following small molecules and cytokines into 500 ml N2B27 basal media: 0.2 μM CHIR99021(GSK3i, TOCRIS, Cat. No. 4423), 1 μM WH-4-023 (SRC inhibitor, TOCRIS, Cat. No. 5413), 2.5 μM XAV939 (Sigma, Cat. No. X3004) or 2.5 μM IWR-1 (TOCRIS, Cat. No. 3532), […] Vitamin C (Sigma, Cat. No. 49752-100G), 10 ng/ml LIF (Stem Cell Institute, University of Cambridge. SCI) and 20 ng/ml ACTIVIN (SCI). hEPSCM (500 ml) was generated by adding the following components into 500 ml N2B27 basal media: 1.0 μM CHIR99021(GSK3 inhibitor, TOCRIS, Cat. No. 4423), 0.5 μM A-419259 (SRC inhibitor, TOCRIS, Cat. No. 3914), 2.5 μM XAV939 (Sigma, Cat. No. X3004), […] Vitamin C (Sigma, Cat. No. 49752-100G), 10 ng/ml LIF (SCI). Although both targeting SRC family kinases (SFKs), WH-4-023 and A419259 were preferred for porcine and human EPSCs, respectively. […] The concentrations of CHIR99021 for porcine and human EPSC cultures are 0.2 μM and 1.0 μM, respectively. […] 0.25 μM SB 590885 (BRAF inhibitor, R&D, Cat. No. 2650) and 2.0 μM SP600125 ([…], TOCRIS, Cat. No. 1496) were included to improve porcine and human EPSC cultures, but they were not essential for the routine maintenance of porcine and human EPSCs. All cell cultures in this paper were performed under conditions of 37° C. and 5% CO2 unless stated otherwise.
(§2) Total RNA was isolated using an RNeasy Mini Kit (Qiagen, Cat. No. 74106) for cultured cells or RNeasy Micro Kit (Qiagen, Cat. No. 74034) for sorted NANOS3-mCherry^+ cells. RNA was subsequently quantified and treated with gDNA WipeOut to remove genomic DNA. Complementary DNA (cDNA) was prepared using a QuantiTect Reverse Transcription Kit (Qiagen, Cat. No. 205311). RT-qPCR primers or TaqMan Gene Expression Assays (Life Technologies) are listed in Supplementary Table 10 and 11. ABsolute Blue qPCR ROX Mix (ABgene, Cat. No. AB4138B) were used for probe based qPCR assays and SYBR Green ROX qPCR Mastermix (Qiagen, Cat. No. 330523) were used for primer based qPCR assays. All qPCR reactions were performed on ABI 7900 HT Sequence Detection System (Life Technologies). Information on all primers and probes used for qPCR analysis are provided in Supplementary Table 10 and 11. Gene expression was determined relative to GAPDH using the […]. […]

H1-EPSCs = assay: Requirement of individual culture components for hEPSCs (RT-qPCR, AP+ colony formation); assay type: cell-based, human
Procedure: as §1, §2

human EPSCs = assay: Differentiation of human EPSCs to trophoblast lineages (CDX2-H2B-Venus reporter flow cytometry, RT-qPCR); assay type: cell-based
Procedure: hEPSCs were dissociated with 0.25% trypsin/EDTA and seeded in gelatinised 6-well plates at a density of 0.1×10^6 cells/well. The cells were cultured in 20% KSR media supplemented with 5 μM ROCK inhibitor Y-27632 for 1 day. 20% KSR media: DMEM/F-12 (Gibco, Cat. No. 21331-020), 20% KnockOut Serum Replacement (KSR) (Gibco, Cat. No. 10828-028), 1× glutamine penicillin-streptomycin (Thermo Fisher Scientific, Cat. No. 11140-050), 1×NEAA (Thermo Fisher Scientific, Cat. No. 10378-016) and 0.1 mM 2-mercaptoethanol (Sigma, Cat. No. M6250). From the second day, different combinations of the TGFβ inhibitor SB431542 (10 μM, Tocris, Cat. No. 1514), BMP4 (50 ng/ml, R&D, Cat. No. 5020-BP) and the FGF receptor inhibitor PD173074 (0.1 μM, Tocris, Cat. No. 3044) were added into 20% KSR media to start the trophoblast differentiation. The cells were collected at indicated time points for analysis.

In the case of `c1ccc2c(-c3cnn4cc(-c5ccc(N6CCNCC6)cc5)cnc34)ccnc2c1` [LDN-193189], the “formation of mCherry+/TNAP+ cell clusters” value [1] is reported as “abrogated”.

With `O=C1O[C@H]([C@@H](O)CO)C(O)=C1O` [Vitamin C] the “number of colonies from single cells” value (pEPSCs^Emb) was “reduced” and the pluripotency gene expression (pEPSCs^Emb) was “did not affect”.

For `COc1ccc(N(C(=O)Oc2c(C)cccc2C)c2ccnc(Nc3ccc(N4CCN(C)CC4)cc3)n2)c(OC)c1` [WH-4-023], the “expression of pluripotency factors” value (pEPSCs^Emb; removal of the SRC inhibitor, porcine EPSCs) was “reduced expression of pluripotency factors” and the pluripotency gene expression (H1-EPSCs; WH-4-023 used instead of A419259 in human EPSCs) was “lower pluripotency gene expression”.

With `CN1CCN(C2CCC(n3cc(-c4ccc(Oc5ccccc5)cc4)c4c(N)ncnc43)CC2)CC1` (stereo not shown) [A419259] the “expression of pluripotency factors” value (H1-EPSCs; removal of the SRC inhibitor, human EPSCs) was “reduced expression of pluripotency factors”.

`NC(=O)c1ccc(-c2nc(-c3ccc4c(c3)OCO4)c(-c3ccccn3)[nH]2)cc1` [SB431542] was tested, and the “cell survival and pluripotency factor expression” value (pEPSCs^Emb; adding the TGFβ inhibitor to pEPSCM) was “massive cell loss and down-regulation of pluripotency factors”, the cell differentiation (H1-EPSCs; adding the TGFβ inhibitor, human EPSCs) was “induced rapid cell differentiation” and the “CDX2 reporter cells being CDX2-Venus+” value (human EPSCs; TGFβ inhibition, cells collected 4 days after) was 70%.

In the case of `Cc1c[nH]c(-c2cnc(NCCNc3ccc(C#N)cn3)nc2-c2ccc(Cl)cc2Cl)n1` [CHIR99021], the “differentiation of EPSCs” value (pEPSCs^Emb; high concentration 3.0 μM, porcine EPSCs) is reported as “induced differentiation; also recorded: induces porcine and human EPSC differentiation”, the proliferation (pEPSCs^Emb; porcine EPSCs) is reported as “improved proliferation” and the “number of colonies from single cells” value (pEPSCs^Emb) is reported as “reduced”. The pluripotency gene expression (pEPSCs^Emb) was “did not affect”, the “differentiation of EPSCs” value (H1-EPSCs; high concentration 3.0 μM, human EPSCs) was “induced differentiation; also recorded: induces porcine and human EPSC differentiation” and the proliferation (H1-EPSCs; human EPSCs) was “improved proliferation”.

B1: BMP4: cytokine (R&D, Cat. No. 5020-BP) promoting differentiation of human ESCs to putative trophoblasts (protein, UniProt P21275 293-408, looked up)
Bone morphogenetic protein 4: SPKHHPQRSRKKNKNCRRHSLYVDFSDVGWNDWIVAPPGYQAFYCHGDCPFPLADHLNSTNHAIVQTLVNSVNSSIPKACCVPTELSAISMLYLDEYDKVVLKNYQEMVVEGCGCR
For B1, the “expression of trophoblast genes” value (human EPSCs; 4-day BMP4 treatment, H1-EPSCs and iPSC-EPSCs versus H1-ESCs or H1-5i naïve ESCs) was “induced expression of trophoblast genes”.

From US20220145264A1, “CULTURE MEDIUM FOR MAMMALIAN EXPANDED POTENTIAL STEM CELLS, COMPOSITION, AND METHODS THEREOF” (THE UNIVERSITY OF HONG KONG, priority 2019, published 2022)
